Measurements taken from patent US10143686B2, “Oxidosqualene cyclase as a protein target for anticancer therapeutics” (The Curators of the University of Missouri, priority 2010, dated 2018).

How the values were obtained:
[1] = molecular target: T1, OSC (Homo sapiens, UniProt P48449); settings: value in parentheses not explained in the patent; cited from earlier work
T1 sequence (P48449 1-732): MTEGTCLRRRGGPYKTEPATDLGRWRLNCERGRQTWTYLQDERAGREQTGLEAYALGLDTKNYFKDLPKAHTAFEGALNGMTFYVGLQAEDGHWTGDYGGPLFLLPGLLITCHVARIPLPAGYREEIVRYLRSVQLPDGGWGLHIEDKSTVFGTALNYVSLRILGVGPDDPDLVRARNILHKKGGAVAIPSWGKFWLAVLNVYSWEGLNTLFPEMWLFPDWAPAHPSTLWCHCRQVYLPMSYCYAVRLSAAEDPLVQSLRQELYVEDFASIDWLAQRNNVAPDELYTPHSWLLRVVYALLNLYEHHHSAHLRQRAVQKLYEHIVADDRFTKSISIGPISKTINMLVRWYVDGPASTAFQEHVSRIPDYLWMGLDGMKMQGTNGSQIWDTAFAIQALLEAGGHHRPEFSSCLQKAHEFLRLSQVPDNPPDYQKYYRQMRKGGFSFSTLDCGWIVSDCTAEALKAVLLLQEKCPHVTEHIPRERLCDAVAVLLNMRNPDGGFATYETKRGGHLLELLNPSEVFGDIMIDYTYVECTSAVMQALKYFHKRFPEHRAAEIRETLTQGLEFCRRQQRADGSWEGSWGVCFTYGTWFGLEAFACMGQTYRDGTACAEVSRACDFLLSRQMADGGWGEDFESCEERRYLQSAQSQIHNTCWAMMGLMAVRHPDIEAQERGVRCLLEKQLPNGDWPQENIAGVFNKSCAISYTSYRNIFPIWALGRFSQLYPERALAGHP

[2] = tested on: T47-D breast cancer cells; assay: SRB cell viability assay, T47-D; assay type: cell-based; settings: 24 hours, dose-dependent, FIG. 2B
Description: (§1) The sulforhodamine B (SRB) assay was employed to evaluate the effect of OSC inhibitor Ro 48-8071 on viability of breast cancer and normal mammary gland cells with slight modification of the original procedure established at NCI. Accordingly, the cells were seeded in 96-well plates in 100 μl culture medium and incubated overnight at 37° C. with 5% CO2. […] The surviving or adherent cells were fixed in situ by withdrawing the growth medium and adding 100 μl of PBS and 100 μl of 50% cold trichloroacetic acid and then incubating at 4° C. for 1 h. The surviving cells were washed with ice-water, dried at room temperature (RT), and then stained with 50 μl 4% SRB for 8 min at RT. Unbound dye was removed by washing 5 times with cold 1% acetic acid, and the plates were dried at RT. Bound stain was solubilized with 150 μl 10 mM Tris buffer, and absorbance of samples were measured at 520 nm with a SpecTRA MAX 190 microplate reader (Sunnyvale, Calif.). In these experiments on BT-474, T47-D, and AG11132A cell lines, six wells were used for each concentration, and each experiment was performed at least twice.
(§2) The effect of OSC inhibition was evaluated in additional cancer cell lines as well. Cancer cell lines may be purchased from ATCC (Manassas, Va.). The SRB assay has been employed for determination of the inhibitory effects of RO 48-8071 on growth of different cancer cells. Cells were seeded into 96-well plates and incubated overnight at 37° C. with 5% CO2. The culture medium was removed after 24 hours, and cells were washed with DMEM/F12 medium and then treated with various concentrations of RO 48-8071 in 5% FBS culture medium for 24 and 48 hours. Surviving or adherent cells were fixed in situ by withdrawing the growth medium, adding 100 μl PBS and 100 μl 50% trichloroacetic acid and then incubating at 4° C. for one hour. Cells were washed with ice-cold water, dried at room temperature (RT), and then stained with 50 μl 4% SRB for eight minutes at RT. Unbound dye was removed by washing with cold 1% acetic acid for five times, and plates were dried at RT. Bound stain was solubilized with 150 μl 10 mM Tris buffer and absorbance of samples was read at 520 nm with a SpecTRA MAX 190 microplate reader (Molecular Devices, Sunnyvale, Calif.). Six wells were used for each concentration, and each experiment was performed two to three times.
Effect of RO 48-8071 on breast cancer cell line T47-D viability. […] The culture mediums employed 10% FBS DMEM/F12 for culture and 5% FBS DMEM/F12 for treatment.

[3] = tested on: BT-474 breast cancer cells; assay: SRB cell viability assay, BT-474; assay type: cell-based, human; settings: BT-474, 24 hours, dose-dependent, FIG. 2A
Description: as §1, §2
Effect of RO 48-8071 on breast cancer cell line BT-474 viability. […] The culture mediums employed 10% FBS DMEM/F12 for culture and 5% FBS DMEM/F12 for treatment.

Row | Compound | IC50 [1] [nM] | effect on cell viability (SRB) [2] | effect on cell viability (SRB) [3]
1 | CN(CCCCOc1ccc(C(=O)c2ccc(Br)cc2)cc1)C1CC1 | 19 |  | 
2 | C=CCC(C)CCCCCCOc1ccc2c(-c3ccc(Br)cc3)nn(C)c2c1 (stereo not shown) | 19.6 |  | 
3 | O=C(c1ccc(Cl)cc1)N1CCC(Cc2ccc(C3=NCCO3)cc2)CC1 | 36 |  | 
4 | O=C1C2CCN(CC2)C1(CO)CO [PRIMA-1, 2,2-bis(hydroxymethyl)-3-quinuclidinone] |  | significantly inhibit the viability | significantly inhibit the viability
5 | CCN(CC)CCO[C@H]1CC[C@@]2(C)C(=CC[C@@H]3[C@@H]2CC[C@]2(C)C(=O)CC[C@@H]32)C1 [U18666A, 3-beta-(2-(diethylamino)ethoxy)androst-5-en-17-one] |  | significantly inhibit the viability | significantly inhibit the viability
